pIC50: −log10 of the molar value.
biological target: T1, PARP (Homo sapiens, UniProt P09874); assay: PARP ELISA (ELISA-based colorimetric PARP/Apoptosis Assay kit, Trevigen); assay type: biochemical; conditions: pIC50=-log10 IC50, IC50 in mol/L; inhibition of PARP catalytic activity
T1 construct: purchased Trevigen 4684-096-K HT (kit); 4684-096-01 (PARP enzyme)
Procedure: Inhibition Constant (IC50) from PARP ELISA
After 10 minutes of catalysis the reaction is quenched by solvent aspiration followed by irrigation of the assay wells 4 times with phosphate buffered saline (PBS) containing 0.1% t-Octylphenoxypolyethoxyethanol (Triton® X-100). Mouse Anti-poly ADP ribose (PAR) monoclonal antibody, goat antimouse immunoglobulin G (IgG)-horse radish peroxidase (HRP) conjugate and HRP substrate are added according to the manufacture's specifications to generate a colorimetric signal proportional to PARP catalytic activity.

T1 sequence (P09874 whole entry): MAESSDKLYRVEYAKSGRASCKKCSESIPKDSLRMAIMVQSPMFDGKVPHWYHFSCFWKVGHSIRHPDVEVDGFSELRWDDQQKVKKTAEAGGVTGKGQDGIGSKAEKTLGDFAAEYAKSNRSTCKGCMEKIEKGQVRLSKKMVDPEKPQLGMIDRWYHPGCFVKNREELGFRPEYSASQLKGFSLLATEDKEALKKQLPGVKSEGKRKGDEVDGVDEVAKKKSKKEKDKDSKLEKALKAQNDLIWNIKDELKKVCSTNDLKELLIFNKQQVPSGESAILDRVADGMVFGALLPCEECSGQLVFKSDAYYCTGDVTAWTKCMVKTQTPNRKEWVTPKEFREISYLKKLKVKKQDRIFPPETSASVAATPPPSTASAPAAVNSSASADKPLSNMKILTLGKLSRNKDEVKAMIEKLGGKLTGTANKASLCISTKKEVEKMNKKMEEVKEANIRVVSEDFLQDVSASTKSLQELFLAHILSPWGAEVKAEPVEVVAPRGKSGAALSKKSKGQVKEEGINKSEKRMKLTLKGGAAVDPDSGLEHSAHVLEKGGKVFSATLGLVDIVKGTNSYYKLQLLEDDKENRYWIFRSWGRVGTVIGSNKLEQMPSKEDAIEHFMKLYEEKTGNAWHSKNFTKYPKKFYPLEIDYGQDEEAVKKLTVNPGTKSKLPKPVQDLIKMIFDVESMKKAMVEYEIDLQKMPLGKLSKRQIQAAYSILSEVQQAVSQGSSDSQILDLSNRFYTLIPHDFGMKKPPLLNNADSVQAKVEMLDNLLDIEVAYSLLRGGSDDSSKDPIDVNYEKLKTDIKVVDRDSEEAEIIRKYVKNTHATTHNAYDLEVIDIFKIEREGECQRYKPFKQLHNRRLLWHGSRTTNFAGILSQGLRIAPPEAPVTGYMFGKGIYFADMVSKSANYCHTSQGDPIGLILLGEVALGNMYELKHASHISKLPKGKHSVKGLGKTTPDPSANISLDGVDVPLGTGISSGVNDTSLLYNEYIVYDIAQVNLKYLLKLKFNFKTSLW

pIC50 | Compound
≤ 6.90 | CC1Oc2c(Cl)cc(CN3CCC(c4ccc(Cl)cc4)CC3)cc2NC1=O (stereo not drawn) [Compound 165, 8-Chloro-6-((4-(4-chlorophenyl)piperidin-1-yl)methyl)-2-methyl-2H-benzo[b][1,4]oxazin-3(4H)-one]
≤ 6.90 | CC(=O)Nc1ccc(N2CCN(Cc3ccc4c(c3)NC(=O)C(C)O4)CC2)cc1 (stereo not drawn) [Compound 245, N-(4-(4-((2-Methyl-3-oxo-3,4-dihydro-2H-benzo[b][1,4]oxazin-6-yl)methyl)piperazin-1-yl)phenyl)acetamide]
≤ 6.90 | CCC(=O)Nc1ccc(N2CCN(Cc3ccc4c(c3)NC(=O)C(C)O4)CC2)cc1 (stereo not drawn) [Compound 246, N-(4-(4-((2-Methyl-3-oxo-3,4-dihydro-2H-benzo[b][1,4]oxazin-6-yl)methyl)piperazin-1-yl)phenyl)propionamide]
≤ 6.90 | CC1Oc2ccc(CN3CCN(c4ccc(NC(=O)C5CC5)cc4)CC3)cc2NC1=O (stereo not drawn) [Compound 247, N-(4-(4-((2-methyl-3-oxo-3,4-dihydro-2H-benzo[b][1,4]oxazin-6-yl)methyl)piperazin-1-yl)phenyl)cyclopropanecarboxamide]
≤ 6.90 | CC1Oc2ccc(CN3CCN(c4ccc(NC(=O)c5ccccc5)cc4)CC3)cc2NC1=O (stereo not drawn) [Compound 248, N-(4-(4-((2-Methyl-3-oxo-3,4-dihydro-2H-benzo[b][1,4]oxazin-6-yl)methyl)piperazin-1-yl)phenyl)benzamide]
< 6.70 | CC1Oc2c(Cl)cc(CN3CCN(c4ccc(C(=O)O)cc4)CC3)cc2NC1=O (stereo not drawn) [Compound 307, 4-(4-((8-Chloro-2-methyl-3-oxo-3,4-dihydro-2H-benzo[b][1,4]oxazin-6-yl)methyl)piperazin-1-yl)benzoic acid]
7.50 | CC(C)NC(=O)c1ccc(N2CCN(Cc3cc(Cl)c4c(c3)NC(=O)C(C)O4)CC2)cc1 (stereo not drawn) [Compound 310, 4-(4-((8-Chloro-2-methyl-3-oxo-3,4-dihydro-2H-benzo[b][1,4]oxazin-6-yl)methyl)piperazin-1-yl)-N-isopropylbenzamide]
7.40 | CC1Oc2c(Cl)cc(CN3CCN(c4ccc(C(=O)NC5CC5)cc4)CC3)cc2NC1=O (stereo not drawn) [Compound 311, 4-(4-((8-Chloro-2-methyl-3-oxo-3,4-dihydro-2H-benzo[b][1,4]oxazin-6-yl)methyl)piperazin-1-yl)-N-cyclopropylbenzamide]
< 6.70 | CCOC(=O)c1ccc(N2CCN(Cc3cc(F)c4c(c3)NC(=O)C(C)O4)CC2)nc1 (stereo not drawn) [Compound 312, Ethyl 6-(4-((8-fluoro-2-methyl-3-oxo-3,4-dihydro-2H-benzo[b][1,4]oxazin-6-yl)methyl)piperazin-1-yl)nicotinate]
< 6.70 | CC1Oc2c(F)cc(CN3CCN(c4ccc(C(=O)O)cn4)CC3)cc2NC1=O (stereo not drawn) [Compound 313, 6-(4-((8-Fluoro-2-methyl-3-oxo-3,4-dihydro-2H-benzo[b][1,4]oxazin-6-yl)methyl)piperazin-1-yl)nicotinic acid]
7.30 | CCNC(=O)c1ccc(N2CCN(Cc3cc(F)c4c(c3)NC(=O)C(C)O4)CC2)nc1 (stereo not drawn) [Compound 315, N-Ethyl-6-(4-((8-fluoro-2-methyl-3-oxo-3,4-dihydro-2H-benzo[b][1,4]oxazin-6-yl)methyl)piperazin-1-yl)nicotinamide]
7.00 | CC(C)NC(=O)c1ccc(N2CCN(Cc3cc(F)c4c(c3)NC(=O)C(C)O4)CC2)nc1 (stereo not drawn) [Compound 316, 6-(4-((8-Fluoro-2-methyl-3-oxo-3,4-dihydro-2H-benzo[b][1,4]oxazin-6-yl)methyl)piperazin-1-yl)-N-isopropylnicotinamide]
7.30 | CC1Oc2c(F)cc(CN3CCN(c4ccc(C(=O)NC5CC5)cn4)CC3)cc2NC1=O (stereo not drawn) [Compound 317, N-Cyclopropyl-6-(4-((8-fluoro-2-methyl-3-oxo-3,4-dihydro-2H-benzo[b][1,4]oxazin-6-yl)methyl)piperazin-1-yl)nicotinamide]
< 6.70 | Cc1cc2c(cc1CN1CCC(c3ccc(Cl)cc3)CC1)NC(=O)C(C)O2 (stereo not drawn) [Compound 322, 6-((4-(4-Chlorophenyl)piperidin-1-yl)methyl)-2,7-dimethyl-2H-benzo[b][1,4]oxazin-3(4H)-one]
< 6.70 | Cc1c(CN2CCN(c3ccc(Cl)cc3)CC2)ccc2c1NC(=O)C(C)O2 (stereo not drawn) [Compound 325, 6-((4-(4-Chlorophenyl)piperazin-1-yl)methyl)-2,5-dimethyl-2H-benzo[b][1,4]oxazin-3(4H)-one]
< 6.70 | Cc1c(CN2CCC(c3ccc(Cl)cc3)CC2)ccc2c1NC(=O)C(C)O2 (stereo not drawn) [Compound 327, 6-((4-(4-Chlorophenyl)piperidin-1-yl)methyl)-2,5-dimethyl-2H-benzo[b][1,4]oxazin-3(4H)-one]

pIC50 | Compound
< 6.70 | CC1Oc2cc(F)c(CN3CCN(c4ccc(Cl)cc4)CC3)cc2NC1=O (stereo not drawn) [Compound 330, 6-((4-(4-Chlorophenyl)piperazin-1-yl)methyl)-7-fluoro-2-methyl-2H-benzo[b][1,4]oxazin-3(4H)-one]
< 6.70 | CC1Oc2cc(F)c(CN3CCC(c4ccc(Cl)cc4)CC3)cc2NC1=O (stereo not drawn) [Compound 332, 6-((4-(4-Chlorophenyl)piperidin-1-yl)methyl)-7-fluoro-2-methyl-2H-benzo[b][1,4]oxazin-3(4H)-one]
< 6.70 | CCOC(=O)c1ccc(N2CCN(Cc3cc4c(cc3F)OC(C)C(=O)N4)CC2)cc1 (stereo not drawn) [Compound 333, Ethyl 4-(4-((7-fluoro-2-methyl-3-oxo-3,4-dihydro-2H-benzo[b][1,4]oxazin-6-yl)methyl)piperazin-1-yl)benzoate]
< 6.70 | CC1Oc2cc(F)c(CN3CCN(c4ccc(C(=O)O)cc4)CC3)cc2NC1=O (stereo not drawn) [Compound 334, 4-(4-((7-Fluoro-2-methyl-3-oxo-3,4-dihydro-2H-benzo[b][1,4]oxazin-6-yl)methyl)piperazin-1-yl)benzoic acid]
< 6.70 | CCNC(=O)c1ccc(N2CCN(Cc3cc4c(c(-c5ccccc5)c3)OC(C)C(=O)N4)CC2)cc1 (stereo not drawn) [Compound 349, N-Ethyl-4-(4-((2-methyl-3-oxo-8-phenyl-3,4-dihydro-2H-benzo[b][1,4]oxazin-6-yl)methyl)piperazin-1-yl)benzamide]
7.10 | C=CCc1cc(CN2CCN(c3ccc(C(=O)NCC)cc3)CC2)cc2c1OC(C)C(=O)N2 (stereo not drawn) [Compound 356, 4-(4-((8-Allyl-2-methyl-3-oxo-3,4-dihydro-2H-benzo[b][1,4]oxazin-6-yl)methyl)piperazin-1-yl)-N-ethylbenzamide]
< 6.70 | CC(C)(C)OC(=O)N1CCN(Cc2ccc3c(c2)NC(=O)CO3)CC1 [Compound 357, tert-Butyl 4-((3-oxo-3,4-dihydro-2H-benzo[b][1,4]oxazin-6-yl)methyl)piperazine-1-carboxylate]
< 6.70 | CC1Oc2ccc(CN3CCN(c4ccc(C(=O)N(C)C)cc4)CC3)cc2NC1=O (stereo not drawn) [Compound 378, N,N-Dimethyl-4-(4-((2-methyl-3-oxo-3,4-dihydro-2H-benzo[b][1,4]oxazin-6-yl)methyl)piperazin-1-yl)benzamide]
< 6.70 | CCN(C)C(=O)c1ccc(N2CCN(Cc3ccc4c(c3)NC(=O)C(C)O4)CC2)cc1 (stereo not drawn) [Compound 379, N-Ethyl-N-methyl-4-(4-((2-methyl-3-oxo-3,4-dihydro-2H-benzo[b][1,4]oxazin-6-yl)methyl)piperazin-1-yl)benzamide]
< 6.70 | CC(C)NC(=O)c1ccc(N2CCC(Cc3ccc4c(c3)NC(=O)C(C)O4)CC2)cc1 (stereo not drawn) [Compound 391, N-Isopropyl-4-(4-((2-methyl-3-oxo-3,4-dihydro-2I-benzo[b][1,4]oxazin-6-yl)methyl)piperidin-1-yl)benzamide]
< 6.70 | CC1Oc2ccc(CC3CCN(c4ccc(C(=O)NC5CC5)cc4)CC3)cc2NC1=O (stereo not drawn) [Compound 392, N-Cyclopropyl-4-(4-((2-methyl-3-oxo-3,4-dihydro-2I-benzo[b][1,4]oxazin-6-yl)methyl)piperidin-1-yl)benzamide]
< 6.70 | CCNC(=O)c1ccc(N2CCC(Cc3ccc4c(c3)NC(=O)C(C)O4)CC2)cc1 (stereo not drawn) [Compound 393, N-Ethyl-4-(4-((2-methyl-3-oxo-3,4-dihydro-2H-benzo[b][1,4]oxazin-6-yl)methyl)piperidin-1-yl)benzamide]
< 6.70 | CCOC(=O)c1ccc(N2CCC(Oc3ccc4c(c3)NC(=O)C(C)O4)CC2)cc1 (stereo not drawn) [Compound 394, Ethyl 4-(4-(2-methyl-3-oxo-3,4-dihydro-2H-benzo[b][1,4]oxazin-6-yloxy)piperidin-1-yl)benzoate]
< 6.70 | CNC(=O)c1ccc(N2CCC(Oc3ccc4c(c3)NC(=O)C(C)O4)CC2)cc1 (stereo not drawn) [Compound 395, N-Methyl-4-(4-(2-methyl-3-oxo-3,4-dihydro-2H-benzo[b][1,4]oxazin-6-yloxy)piperidin-1-yl)benzamide]
< 6.70 | CCNC(=O)c1ccc(N2CCC(Oc3ccc4c(c3)NC(=O)C(C)O4)CC2)cc1 (stereo not drawn) [Compound 396, N-Ethyl-4-(4-(2-methyl-3-oxo-3,4-dihydro-2H-benzo[b][1,4]oxazin-6-yloxy)piperidin-1-yl)benzamide]
< 6.70 | CC1Oc2ccc(OC3CCN(c4ccc(C(=O)NC5CC5)cc4)CC3)cc2NC1=O (stereo not drawn) [Compound 397, N-Cyclopropyl-4-(4-(2-methyl-3-oxo-3,4-dihydro-2H-benzo[b][1,4]oxazin-6-yloxy)piperidin-1-yl)benzamide]

Compound | pIC50
Cc1c(CN2CC=C(c3ccc(Cl)cc3)CC2)ccc2c1NC(=O)C(C)O2 (stereo not drawn) [Compound 326, 6-((4-(4-Chlorophenyl)-5,6-dihydropyridin-1(2H)-yl)methyl)-2,5-dimethyl-2H-benzo[b][1,4]oxazin-3(4H)-one] | < 6.70
